Reference: publication PMC6378217, “The lysyl oxidase like 2/3 enzymatic inhibitor, PXS‐5153A, reduces crosslinks and ameliorates fibrosis” (Journal of Cellular and Molecular Medicine, 2018)

Tests used:
GABAA, Muscimol, Central = experiment: Eurofins Hit Profiling Screen; type: binding; conditions: 10 μmol/L
Recombinant rat LOXL2 = molecular target: T1, Recombinant rat LOXL2 (Rattus norvegicus, UniProt B5DF27); experiment: Amplex-Red fluorometric enzymatic activity assay, recombinant rat LOXL2; type: biochemical; conditions: 30 minute pre-incubation; average of at least three experiments
T1 construct: made in house; host or cells: HEK-293 clones provided by Dr. Fernando Rodríguez Pascual
T1 sequence (B5DF27 26-776): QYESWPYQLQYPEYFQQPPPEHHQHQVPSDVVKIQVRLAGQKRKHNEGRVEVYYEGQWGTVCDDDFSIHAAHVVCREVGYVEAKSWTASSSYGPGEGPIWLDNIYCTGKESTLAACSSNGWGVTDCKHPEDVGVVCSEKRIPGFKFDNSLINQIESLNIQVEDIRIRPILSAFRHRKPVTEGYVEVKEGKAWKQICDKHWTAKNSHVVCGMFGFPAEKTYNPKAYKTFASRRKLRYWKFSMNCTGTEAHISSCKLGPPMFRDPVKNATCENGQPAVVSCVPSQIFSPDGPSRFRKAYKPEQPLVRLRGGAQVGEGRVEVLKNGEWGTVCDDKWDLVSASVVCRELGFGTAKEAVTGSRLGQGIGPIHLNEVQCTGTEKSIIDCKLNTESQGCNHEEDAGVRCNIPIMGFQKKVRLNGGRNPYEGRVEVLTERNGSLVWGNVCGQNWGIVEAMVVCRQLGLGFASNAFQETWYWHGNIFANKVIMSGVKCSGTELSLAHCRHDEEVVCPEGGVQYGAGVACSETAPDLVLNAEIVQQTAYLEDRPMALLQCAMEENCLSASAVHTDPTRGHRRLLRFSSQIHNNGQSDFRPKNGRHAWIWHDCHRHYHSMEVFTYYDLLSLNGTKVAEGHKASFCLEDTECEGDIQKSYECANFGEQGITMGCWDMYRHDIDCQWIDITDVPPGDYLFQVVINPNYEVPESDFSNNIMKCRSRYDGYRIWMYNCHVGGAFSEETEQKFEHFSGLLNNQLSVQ
Description: (§1) The measurement of the enzymatic activity of all lysyl oxidase family members was based on the detection of hydrogen peroxide with an Amplex‐Red oxidation assay, as described in Zhou et al26 Recombinant human semicarbazide sensitive amine oxidase (SSAO/VAP1), diamine oxidase (DAO) and monoamine oxidases A and B (MAO‐A and MAO‐B) assays were performed as previously described.27 For detailed enzymatic procedures, see supporting information.
(§2) The measurement of the enzymatic activity of all lysyl oxidase family members was based on the detection of hydrogen peroxide with an Amplex-Red oxidation assay, as described in Zhou et al.[1]; miniaturised in 384 well format, with the appropriate combination of substrate and assay buffer for each individual enzyme. After a 30 minute pre-incubation of the enzyme at 37 °C with the test compound (or with different incubation times for the time-dependency assay), one volume of reaction mixture containing 120 μM Amplex Red (AR) (Life Technologies), 1.5 U/mL horseradish peroxidase (HRP) (Sigma-Aldrich) and the specific substrate was added to each sample. The relative fluorescence units (RFU) were then measured every 2.5 minutes for 30 minutes at 37°C, excitation 565 nm and emission 590, on a BMG Clariostar Microplate Reader. […]

[1] = molecular target: Nicotinic Acetylcholine α1, Bungarotoxin (Homo sapiens, UniProt P02708+P07510+Q07001); experiment: Eurofins Hit Profiling Screen; type: binding; conditions: 10 μmol/L
Potassium Channel hERG = Potassium Channel hERG (Homo sapiens, UniProt Q12809); experiment: Eurofins Hit Profiling Screen; type: binding; conditions: 10 μmol/L
Sequence of Potassium Channel hERG (Q12809 whole entry): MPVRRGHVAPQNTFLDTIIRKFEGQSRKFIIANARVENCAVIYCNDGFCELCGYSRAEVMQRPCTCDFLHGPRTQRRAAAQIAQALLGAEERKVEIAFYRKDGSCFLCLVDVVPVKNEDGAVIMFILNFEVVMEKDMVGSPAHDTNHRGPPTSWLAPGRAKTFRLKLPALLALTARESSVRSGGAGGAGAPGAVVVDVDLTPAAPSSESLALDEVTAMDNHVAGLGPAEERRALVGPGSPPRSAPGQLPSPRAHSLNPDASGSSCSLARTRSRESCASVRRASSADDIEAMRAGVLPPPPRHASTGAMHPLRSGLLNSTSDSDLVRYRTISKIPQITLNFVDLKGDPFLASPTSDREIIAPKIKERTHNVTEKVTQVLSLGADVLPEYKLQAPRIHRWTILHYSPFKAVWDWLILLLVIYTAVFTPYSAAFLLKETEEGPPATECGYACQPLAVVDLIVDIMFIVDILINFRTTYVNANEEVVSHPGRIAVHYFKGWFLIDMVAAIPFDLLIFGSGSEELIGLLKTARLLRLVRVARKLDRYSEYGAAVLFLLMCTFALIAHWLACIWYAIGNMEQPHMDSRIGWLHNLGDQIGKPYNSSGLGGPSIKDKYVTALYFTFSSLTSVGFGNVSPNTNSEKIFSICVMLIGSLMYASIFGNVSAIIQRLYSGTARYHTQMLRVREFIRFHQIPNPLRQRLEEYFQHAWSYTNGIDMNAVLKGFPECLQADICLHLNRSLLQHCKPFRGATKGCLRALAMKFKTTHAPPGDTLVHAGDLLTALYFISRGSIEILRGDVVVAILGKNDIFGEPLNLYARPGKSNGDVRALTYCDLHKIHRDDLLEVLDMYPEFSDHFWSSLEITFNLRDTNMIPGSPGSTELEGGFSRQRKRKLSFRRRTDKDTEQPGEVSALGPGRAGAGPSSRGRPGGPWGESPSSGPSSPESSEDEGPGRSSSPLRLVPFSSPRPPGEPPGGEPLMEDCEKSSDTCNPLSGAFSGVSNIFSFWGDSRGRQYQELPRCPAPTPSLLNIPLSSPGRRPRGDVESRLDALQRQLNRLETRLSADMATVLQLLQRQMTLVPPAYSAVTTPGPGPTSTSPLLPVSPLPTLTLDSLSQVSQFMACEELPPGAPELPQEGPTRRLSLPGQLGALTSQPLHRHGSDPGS

[2] = molecular target: Transporter, Norepinephrine (NET) (Homo sapiens, UniProt P23975); experiment: Eurofins Hit Profiling Screen; type: binding; conditions: 10 μmol/L
Sequence of Transporter, Norepinephrine (NET) (P23975 whole entry): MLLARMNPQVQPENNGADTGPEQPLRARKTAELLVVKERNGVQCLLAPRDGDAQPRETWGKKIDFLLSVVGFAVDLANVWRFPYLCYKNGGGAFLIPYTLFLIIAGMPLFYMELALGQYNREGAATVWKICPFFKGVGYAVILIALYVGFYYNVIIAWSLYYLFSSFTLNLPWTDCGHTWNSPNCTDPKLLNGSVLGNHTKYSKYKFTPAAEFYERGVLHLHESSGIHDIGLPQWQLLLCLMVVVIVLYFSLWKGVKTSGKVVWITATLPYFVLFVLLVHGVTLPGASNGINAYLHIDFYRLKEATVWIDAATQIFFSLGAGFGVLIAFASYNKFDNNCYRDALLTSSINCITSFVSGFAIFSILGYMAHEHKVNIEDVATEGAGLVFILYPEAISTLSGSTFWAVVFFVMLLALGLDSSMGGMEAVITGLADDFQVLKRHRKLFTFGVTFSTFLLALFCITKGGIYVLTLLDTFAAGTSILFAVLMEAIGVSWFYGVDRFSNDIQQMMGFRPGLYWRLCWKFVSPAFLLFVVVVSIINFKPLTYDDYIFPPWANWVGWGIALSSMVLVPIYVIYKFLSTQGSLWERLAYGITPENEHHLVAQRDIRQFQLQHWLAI

Recombinant human LOXL3 = molecular target: T2, Recombinant human LOXL3 (Homo sapiens, UniProt P58215); experiment: Amplex-Red fluorometric enzymatic activity assay, recombinant human LOXL3; type: biochemical; conditions: 30 minute pre-incubation; average of at least three experiments
T2 construct: purchased R&D Systems
T2 sequence (P58215 26-753): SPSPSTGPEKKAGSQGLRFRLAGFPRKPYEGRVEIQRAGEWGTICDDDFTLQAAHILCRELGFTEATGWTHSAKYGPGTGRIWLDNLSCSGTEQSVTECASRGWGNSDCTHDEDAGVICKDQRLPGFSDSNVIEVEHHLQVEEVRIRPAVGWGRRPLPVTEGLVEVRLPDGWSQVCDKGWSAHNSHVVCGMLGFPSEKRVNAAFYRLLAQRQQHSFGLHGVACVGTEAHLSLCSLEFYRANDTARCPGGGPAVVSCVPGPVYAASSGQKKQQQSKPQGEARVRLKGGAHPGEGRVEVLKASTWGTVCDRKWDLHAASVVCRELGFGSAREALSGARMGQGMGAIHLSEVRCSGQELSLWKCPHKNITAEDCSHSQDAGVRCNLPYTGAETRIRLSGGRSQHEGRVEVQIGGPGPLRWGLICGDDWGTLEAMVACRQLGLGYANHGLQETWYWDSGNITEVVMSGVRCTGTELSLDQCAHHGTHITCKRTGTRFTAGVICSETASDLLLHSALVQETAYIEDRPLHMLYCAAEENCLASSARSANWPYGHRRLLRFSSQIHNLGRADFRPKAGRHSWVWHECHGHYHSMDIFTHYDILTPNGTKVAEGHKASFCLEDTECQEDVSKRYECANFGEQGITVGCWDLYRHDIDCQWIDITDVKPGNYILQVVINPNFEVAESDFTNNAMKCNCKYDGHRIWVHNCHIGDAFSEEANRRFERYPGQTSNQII
Description: as §1, §2

MAO-A = MAO-A (Homo sapiens, UniProt P21397); experiment: MAO-A enzymatic activity assay; type: biochemical
Sequence of MAO-A (P21397 whole entry): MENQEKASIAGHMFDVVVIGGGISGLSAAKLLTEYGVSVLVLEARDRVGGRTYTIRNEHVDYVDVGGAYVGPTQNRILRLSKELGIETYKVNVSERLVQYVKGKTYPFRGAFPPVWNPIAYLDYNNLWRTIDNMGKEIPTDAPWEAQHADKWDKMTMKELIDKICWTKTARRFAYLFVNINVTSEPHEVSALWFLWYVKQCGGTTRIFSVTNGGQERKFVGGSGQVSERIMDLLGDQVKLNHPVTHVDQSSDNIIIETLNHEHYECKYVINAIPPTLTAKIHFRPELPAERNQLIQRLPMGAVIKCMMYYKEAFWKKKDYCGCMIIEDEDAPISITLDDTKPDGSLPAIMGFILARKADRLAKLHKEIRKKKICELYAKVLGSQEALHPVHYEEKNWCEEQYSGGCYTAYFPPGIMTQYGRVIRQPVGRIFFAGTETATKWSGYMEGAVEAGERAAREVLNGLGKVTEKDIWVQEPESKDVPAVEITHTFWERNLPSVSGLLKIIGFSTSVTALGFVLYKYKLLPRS
Description: as §1
(§3) Recombinant human semicarbazide sensitive amine oxidase (SSAO/VAP1), diamine oxidase (DAO) and monoamine oxidases A and B (MAO-A and MAO-B) assays were performed as previously described.

[3] = Pharmacokinetic study in mice; type: in vivo, C57/BL6 mice; conditions: mouse
Description: (§4) Studies were performed by Pharmalegacy (Shanghai, China), GVK (Hyderabad, India) and Sundia, (Shanghai, China), with local ethics approval. Wistar rats were administered PXS‐5153A orally at 10 mg/kg or intravenously at 5 mg/kg, while C57/BL6 mice received PXS‐5153A orally or intravenously at 5 mg/kg. Plasma was analysed for PXS‐5153A by high‐performance liquid chromatography‐mass spectrometry/mass spectrometry (LCMS/MS).

[4] = Pharmacokinetic study in rats; type: in vivo, Wistar rats; conditions: rat
Description: as §4

[5] = molecular target: Recombinant human semicarbazide sensitive amine oxidase (SSAO/VAP1) (Homo sapiens, UniProt Q16853); experiment: SSAO/VAP1 enzymatic activity assay; type: biochemical
Sequence of Recombinant human semicarbazide sensitive amine oxidase (SSAO/VAP1) (Q16853 whole entry): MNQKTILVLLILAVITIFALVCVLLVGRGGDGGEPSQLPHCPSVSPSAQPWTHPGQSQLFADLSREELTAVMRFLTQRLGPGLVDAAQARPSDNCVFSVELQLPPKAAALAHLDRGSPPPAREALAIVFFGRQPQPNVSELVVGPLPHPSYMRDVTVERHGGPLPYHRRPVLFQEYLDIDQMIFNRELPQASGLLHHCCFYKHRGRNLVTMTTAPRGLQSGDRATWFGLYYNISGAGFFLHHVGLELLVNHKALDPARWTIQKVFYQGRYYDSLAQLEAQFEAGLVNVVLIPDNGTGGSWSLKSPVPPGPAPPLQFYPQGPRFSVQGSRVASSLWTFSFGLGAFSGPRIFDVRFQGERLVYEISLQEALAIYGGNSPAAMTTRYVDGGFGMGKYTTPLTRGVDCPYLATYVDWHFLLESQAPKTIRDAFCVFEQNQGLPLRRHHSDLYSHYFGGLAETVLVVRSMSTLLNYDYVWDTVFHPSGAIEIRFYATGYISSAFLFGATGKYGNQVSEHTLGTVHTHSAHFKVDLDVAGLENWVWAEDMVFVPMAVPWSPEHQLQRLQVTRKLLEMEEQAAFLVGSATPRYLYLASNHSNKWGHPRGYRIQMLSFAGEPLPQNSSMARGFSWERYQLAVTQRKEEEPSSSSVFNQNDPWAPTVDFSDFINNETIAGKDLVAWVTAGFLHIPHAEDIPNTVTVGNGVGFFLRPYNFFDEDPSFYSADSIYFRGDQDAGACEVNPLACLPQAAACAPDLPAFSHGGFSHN
Description: as §1, §3

Adrenergic α1B = Adrenergic α1B (Rattus norvegicus, UniProt P15823); experiment: Eurofins Hit Profiling Screen; type: binding; conditions: 10 μmol/L
Sequence of Adrenergic α1B (P15823 whole entry): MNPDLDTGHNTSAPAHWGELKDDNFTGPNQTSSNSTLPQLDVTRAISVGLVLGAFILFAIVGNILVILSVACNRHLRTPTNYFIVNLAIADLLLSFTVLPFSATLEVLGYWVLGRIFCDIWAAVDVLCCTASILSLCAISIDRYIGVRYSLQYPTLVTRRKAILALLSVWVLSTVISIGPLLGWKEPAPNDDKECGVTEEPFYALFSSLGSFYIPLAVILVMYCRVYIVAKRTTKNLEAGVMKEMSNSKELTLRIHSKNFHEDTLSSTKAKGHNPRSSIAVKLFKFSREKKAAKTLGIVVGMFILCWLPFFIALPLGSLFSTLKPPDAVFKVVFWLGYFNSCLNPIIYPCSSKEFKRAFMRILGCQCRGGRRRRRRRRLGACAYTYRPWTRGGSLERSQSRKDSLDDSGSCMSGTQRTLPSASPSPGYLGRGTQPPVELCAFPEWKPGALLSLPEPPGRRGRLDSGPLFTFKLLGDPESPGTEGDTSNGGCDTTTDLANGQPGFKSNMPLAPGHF

Phorbol Ester = experiment: Eurofins Hit Profiling Screen; type: binding; conditions: 10 μmol/L
[6] = system: CCl4-induced liver fibrosis; experiment: CCl4-induced liver fibrosis; type: in vivo, Sprague Dawley rats
Description: Pellet then underwent acid hydrolysis in 6 mol/L HCl at 100°C for 24 hours. Hydroxyproline and crosslinks were extracted from the hydrolysate using an automated solid phase extraction system (Gilson […] system). After extraction and drying, hydroxyproline and crosslinks were analysed by UHPLC-ESI-MS/MS on a Thermo Dionex UHPLC and TSQ Endura triple quad mass spectrometer. Total protein was quantified in the samples using a commercially available kit (QuickZyme Biosciences, Leiden, The Netherlands). For detailed procedures, see supporting information. The study was performed by Pharmalegacy with approval from local ethics committee. […] Animals were killed 48 hours after the last CCl4 administration. […] Alanine aminotransferase (ALT) and aspartate aminotransferase (AST) levels were assessed in the plasma. One lobe of the liver tissue was fixed in 10% formalin, stained for Sirius red and the percentage coverage area was measured. The remainder of the liver was snap frozen and used for protein, hydroxyproline and crosslink analysis.

## Cc1c(-c2cccc(S(=O)(=O)N(C)C)c2)c2ncccc2n1C/C(F)=C/CN.Cl.Cl [PXS-5153A]
GABAA, Muscimol, Central
  % inhibition: -7%
Recombinant rat LOXL2
  IC50: 15 nM
  pIC50 ± SD: 7.8 ± 0
[1]
  % inhibition: 2%
Potassium Channel hERG
  % inhibition: 47%
[2]
  % inhibition: 15%
Recombinant human LOXL3
  IC50: 63 nM
  pIC50 ± SD: 7.2 ± 0.23
MAO-A
  IC50: > 30000 nM
[3]; intravenous 5 mg/kg
  Apparent half-life, t1/2: 96 min
  Clearance CL: 673 mL/min/kg
  Time of maximal concentration Tmax: 4.8 min
[3]; oral 5 mg/kg
  Apparent concentration at curve maximum Cmax: 113 ng/mL
  Clearance CL: 593 mL/min/kg
  Time of maximal concentration Tmax: 60 min
[3]; oral 5 mg/kg (i.v. 5 mg/kg)
  Bioavailability: 40%
[4]; intravenous 5 mg/kg
  Apparent half-life, t1/2: 78 min
  Clearance CL: 180 mL/min/kg
  Time of maximal concentration Tmax: 1.8 min
[4]; oral 10 mg/kg
  Apparent concentration at curve maximum Cmax: 33 ng/mL
  Clearance CL: 2029 mL/min/kg
  Time of maximal concentration Tmax: 37.5 min
[4]; oral 10 mg/kg (i.v. 5 mg/kg)
  Bioavailability: 10%
[5]
  IC50: > 30000 nM
Adrenergic α1B
  % inhibition: 6%
Phorbol Ester
  % inhibition: 2%
[6]
  mature crosslink formation (PYD + DPD): reduced
[6]; all dosing regimens
  reduction of HYP content: > 30%
[6]; all groups with therapeutic treatment
  DHLNL formation: significant reduction
[6]; all groups, only high dose q.d. statistically significant
  PYD: different degrees of reduction
[6]; both of the daily dosing groups
  reduction of collagen accumulation (Picrosirius red): up to 51%
[6]; crosslink normalized relative to hydroxyproline content
  DHLNL/HYP ratio increase: reversed
[6]; high dose q.d. treatment
  DPD crosslinks: significantly reduced
[6]; high dose q.d. treatment compared with the CCl4 treated animals
  liver injury, ALT and AST: significantly dampened
[6]; therapeutic treatment, compared with the CCl4 treated animals
  immature crosslink formation (DHLNL + HLNL): substantially reduced
